These results are taken from patent US9346815B2, “5-chloro-2-difluoromethoxyphenyl pyrazolopyrimidine compounds, compositions and methods of use thereof” (Genentech, Inc., priority 2014, dated 2016).

Experiment [1] has as its target isolated recombinant JAK1 kinase domain (Homo sapiens (Human), UniProt P23458). Description: JAK1 enzyme assay (Caliper LabChip, peptide phosphorylation). It counts as biochemical. The note with it: isolated recombinant JAK1 kinase domain, 25 μM ATP.
Experiment [2] addresses isolated recombinant JAK2 kinase domain (Homo sapiens (Human), UniProt O60674). Description: JAK2 enzyme assay (Caliper LabChip, peptide phosphorylation). The experiment is classed as biochemical. The following applies: 25 μM ATP.
The subject of experiment [3] is JAK1-dependent STAT6 phosphorylation downstream of IL-13 stimulation in BEAS-2B human bronchial epithelial cells. Description: JAK1 pathway assay in BEAS-2B cells (IL-13-pSTAT6, MSD). The following applies: read-out: IL13-pSTAT6 EC50 (uM)_BEAS-2B. The experiment is classed as cell-based. In a few lines: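 Inhibitors were added to TF-1 cells (GM-CSF-starved, serum-free) for 30 min or to BEAS-2B cells (complete medium) for 1 hr at 37° C. MSD detected pSTAT6.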

pKi: −log10 of the molar value.

Sequence of isolated recombinant JAK2 kinase domain (O60674 849-1124): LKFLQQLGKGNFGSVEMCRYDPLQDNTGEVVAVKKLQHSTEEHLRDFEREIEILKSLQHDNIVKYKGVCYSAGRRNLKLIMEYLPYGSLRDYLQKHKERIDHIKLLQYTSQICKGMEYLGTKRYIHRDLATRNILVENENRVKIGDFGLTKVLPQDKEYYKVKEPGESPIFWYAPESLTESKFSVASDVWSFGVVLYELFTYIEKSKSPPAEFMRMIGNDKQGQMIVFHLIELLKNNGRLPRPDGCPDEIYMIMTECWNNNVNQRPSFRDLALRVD
Sequence of isolated recombinant JAK1 kinase domain (P23458 875-1153): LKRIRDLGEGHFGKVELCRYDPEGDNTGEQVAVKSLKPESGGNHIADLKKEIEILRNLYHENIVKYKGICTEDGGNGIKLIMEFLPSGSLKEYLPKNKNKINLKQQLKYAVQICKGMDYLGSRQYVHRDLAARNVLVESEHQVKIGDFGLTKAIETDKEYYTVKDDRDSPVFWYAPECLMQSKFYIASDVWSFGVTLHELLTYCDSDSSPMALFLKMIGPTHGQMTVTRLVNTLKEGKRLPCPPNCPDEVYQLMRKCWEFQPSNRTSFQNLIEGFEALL

`C[C@@H]1COCCN1C1CCN(C(=O)Cn2cc(NC(=O)c3cnn4cccnc34)c(-c3cc(Cl)ccc3OC(F)F)n2)CC1` [Example 449, N-(3-(5-chloro-2-(difluoromethoxy)phenyl)-1-(2-(4-((R)-3-methyl-morpholino)piperidin-1-yl)-2-oxoethyl)-1H-pyrazol-4-yl)pyrazolo[1,5-a]pyrimidine-3-carboxamide]: the pKi is 9.42 in experiment [1] and 8.96 in experiment [2]. Further, the EC50 in experiment [3] worked out at 0.0136 µM.
`O=C(Nc1cn(CC(=O)N2CCC(N3CC4CC(C3)O4)CC2)nc1-c1cc(Cl)ccc1OC(F)F)c1cnn2cccnc12` [Example 450, N-(1-(2-(4-(6-oxa-3-aza-bicyclo[3.1.1]heptan-3-yl)piperidin-1-yl)-2-oxoethyl)-3-(5-chloro-2-(difluoromethoxy)phenyl)-1H-pyrazol-4-yl)pyrazolo[1,5-a]pyrimidine-3-carboxamide]: the pKi in experiment [1] is 9.43; in experiment [2] it was 9.01. Also, the EC50 in experiment [3] worked out at 0.0126 µM.
`C[C@H]1COCCN1C1CCN(C(=O)Cn2cc(NC(=O)c3cnn4cccnc34)c(-c3cc(Cl)ccc3OC(F)F)n2)CC1` [Example 451, N-(3-(5-chloro-2-(difluoromethoxy)phenyl)-1-(2-(4-((S)-3-methyl-morpholino)piperidin-1-yl)-2-oxoethyl)-1H-pyrazol-4-yl)pyrazolo[1,5-a]pyrimidine-3-carboxamide]: the pKi in experiment [1] is 9.35; in experiment [2] it was 8.81. In addition, in experiment [3], the EC50 turned out to be 0.0201 µM.
Take `O=C(Nc1cn(Cc2cn(C3CCNCC3)nn2)nc1-c1cc(Cl)ccc1OC(F)F)c1cnn2cccnc12` [Example 452, N-(3-(5-chloro-2-(difluoromethoxy)phenyl)-1-((1-(piperidin-4-yl)-1H-1,2,3-triazol-4-yl)methyl)-1H-pyrazol-4-yl)pyrazolo[1,5-a]pyrimidine-3-carboxamide]: the pKi in experiment [1] was 9.15; in experiment [2], 9.19. For the same compound, in experiment [3], the EC50 came out at 0.0809 µM.
For `O=C(Nc1cn(CC(=O)N2CCC(OCC(=O)N3CCOCC3)CC2)nc1-c1cc(Cl)ccc1OC(F)F)c1cnn2cccnc12` [Example 453, N-(3-(5-chloro-2-(difluoromethoxy)phenyl)-1-(2-(4-(2-morpholino-2-oxoethoxy)piperidin-1-yl)-2-oxoethyl)-1H-pyrazol-4-yl)pyrazolo[1,5-a]pyrimidine-3-carboxamide], the pKi is 9.39 in experiment [1] and 8.89 in experiment [2]. Moreover, the EC50 in experiment [3] was found to be 0.0304 µM.
For `CN1CCC(n2cc(Cn3cc(NC(=O)c4cnn5cccnc45)c(-c4cc(Cl)ccc4OC(F)F)n3)nn2)CC1` [Example 454, N-(3-(5-chloro-2-(difluoromethoxy)phenyl)-1-((1-(1-methylpiperidin-4-yl)-1H-1,2,3-triazol-4-yl)methyl)-1H-pyrazol-4-yl)pyrazolo[1,5-a]pyrimidine-3-carboxamide], the pKi in experiment [1] is 9.40; in experiment [2], 9.64. Moreover, the EC50 in experiment [3] came out at 0.0235 µM.
As for `O=C(Nc1cn(Cc2cn(C3CCN(C4CCOC4)CC3)nn2)nc1-c1cc(Cl)ccc1OC(F)F)c1cnn2cccnc12` (stereo not drawn) [Example 455, N-(3-(5-chloro-2-(difluoromethoxy)phenyl)-1-((1-(1-(tetrahydrofuran-3-yl)piperidin-4-yl)-1H-1,2,3-triazol-4-yl)methyl)-1H-pyrazol-4-yl)pyrazolo[1,5-a]pyrimidine-3-carboxamide], the pKi in experiment [1] was 9.52; in experiment [2], 9.82. Moreover, in experiment [3], the EC50 stood at 0.021 µM.
In the case of `N#CCCCNC1CCN(C(=O)Cn2cc(NC(=O)c3cnn4cccnc34)c(-c3cc(Cl)ccc3OC(F)F)n2)CC1` [Example 456, N-(3-(5-chloro-2-(difluoromethoxy)phenyl)-1-(2-(4-(3-cyanopropyl-amino)piperidin-1-yl)-2-oxoethyl)-1H-pyrazol-4-yl)pyrazolo[1,5-a]pyrimidine-3-carboxamide], the pKi was 9.31 in experiment [1] and 8.95 in experiment [2]. Further, the EC50 in experiment [3] came to 0.041 µM.

A word on the pKi: it is −log10 of the Ki, conventionally taken in molar units. Usually EC50 stands for the concentration that produces a half-maximal response.
